Assays:
[1] = Selectivity index, ratio of IC50 for rat L6 cells to IC50 for Plasmodium falciparum K1; type: functional
[2] = Selectivity index, ratio of IC50 for rat L6 cells to IC50 for Trypanosoma brucei rhodesiense; type: functional
[3] = test system: Plasmodium falciparum; assay: Antiplasmodial activity against chloroquine, pyrimethamine-resistant Plasmodium falciparum K1 after 48 hrs; type: functional, organism-based; settings: K1, 48 h
[4] = test system: L6; assay: Cytotoxicity against rat L6 cells after 72 hrs by microplate assay; type: cell-based; settings: L6, 72 h
[5] = test system: Trypanosoma brucei rhodesiense; assay: Antitrypanosomal activity against Trypanosoma brucei rhodesiense after 72 hrs by microplate assay; type: functional, organism-based

Structure (SMILES) | Ratio IC50 [1] | Ratio IC50 [2] | IC50 [3] | IC50 [4] | IC50 [5]
CC(C)(C)C(=O)OC1CC2(N3CCCC3)CC(c3ccccc3)C1C(c1ccccc1)C2 (racemic) | 7.7 | 5.52 | 990 nM | 7620 nM | 1380 nM
CCN(CC)CC(=O)OC1CC2(N(C)C)CC(c3ccccc3)C1C(c1ccccc1)C2 (racemic) | 11.08 | 49.41 |  |  | 
CC(C)(C)C(=O)OC1CC2(N3CCCCC3)CC(c3ccccc3)C1C(c1ccccc1)C2 (racemic) | 1.51 | 4.46 | 7930 nM | 12000 nM | 2690 nM
O=C(/C=C/c1ccccc1)OC1CC2(N3CCCC3)CC(c3ccccc3)C1C(c1ccccc1)C2 (racemic) | 5.56 | 3.37 | 630 nM | 3500 nM | 1040 nM
CN(C)C12CC(OC(=O)CN3CCCCC3)C(C(c3ccccc3)C1)C(c1ccccc1)C2 (racemic) | 56.27 | 14.7 |  |  | 
O=C(CN1CCCC1)OC1CC2(N3CCCCC3)CC(c3ccccc3)C1C(c1ccccc1)C2 (racemic) | 34.85 | 51.19 |  |  | 
C[C@@H]1CC[C@H]2[C@@H](C)C(=O)O[C@@H]3O[C@@]4(C)CC[C@@H]1[C@]32OO4 [ARTEMISININ] |  |  | 6.4 nM |  | 
CC(=O)OC1CC2(N3CCCC3)CC(c3ccccc3)C1C(c1ccccc1)C2 (racemic) |  |  | > 11700 nM |  | 4930 nM
O=C(/C=C/c1ccccc1)OC1CC2(N3CCCCC3)CC(c3ccccc3)C1C(c1ccccc1)C2 (racemic) | 23.27 | 7.43 | 450 nM | 10500 nM | 1410 nM
CC(=O)OC1CC2(N3CCCCC3)CC(c3ccccc3)C1C(c1ccccc1)C2 (racemic) |  |  | > 11000 nM |  | 9890 nM
CCN(CC)CC(=O)OC1CC2(N3CCCCC3)CC(c3ccccc3)C1C(c1ccccc1)C2 (racemic) | 95.68 | 42.71 |  |  | 
CN(C)C12CC(OC(=O)CN3CCCC3)C(C(c3ccccc3)C1)C(c1ccccc1)C2 (racemic) | 46 | 155.5 |  |  | 
O=C(OC1CC2(N3CCCC3)CC(c3ccccc3)C1C(c1ccccc1)C2)c1ccc2c(c1)OCO2 (racemic) | 14.49 | 6.89 | 390 nM | 5650 nM | 820 nM
CC(=O)OC1CC2(N(C)C)CC(c3ccccc3)C1C(c1ccccc1)C2 (racemic) |  |  | > 12500 nM |  | 4750 nM
O=C(CN1CCCCC1)OC1CC2(N3CCCCC3)CC(c3ccccc3)C1C(c1ccccc1)C2 (racemic) | 335.5 | 69.41 |  |  | 
CN(C)C12CC(OC(=O)c3ccc4c(c3)OCO4)C(C(c3ccccc3)C1)C(c1ccccc1)C2 (racemic) | 15.65 | 5.43 | 340 nM | 5320 nM | 980 nM
CCN(CC)CC(=O)OC1CC2(N3CCCC3)CC(c3ccccc3)C1C(c1ccccc1)C2 (racemic) | 245 | 68.06 |  |  | 
O=C(CN1CCCC1)OC1CC2(N3CCCC3)CC(c3ccccc3)C1C(c1ccccc1)C2 (racemic) | 61.34 | 186.7 | 700 nM | 42900 nM | 230 nM
CN(C)C12CC(O)C(C(c3ccccc3)C1)C(c1ccccc1)C2 (racemic) | <8.53 | 44.92 |  |  | 
CN(C)C12CC(OC(=O)C(C)(C)C)C(C(c3ccccc3)C1)C(c1ccccc1)C2 (racemic) | 12.05 | 8.16 | 420 nM | 5060 nM | 620 nM
O=C(OC1CC2(N3CCCCC3)CC(c3ccccc3)C1C(c1ccccc1)C2)c1ccc2c(c1)OCO2 (racemic) | 23.15 | 5.07 | 550 nM | 12700 nM | 2510 nM
CN(C)C12CC(OC(=O)/C=C/c3ccccc3)C(C(c3ccccc3)C1)C(c1ccccc1)C2 (racemic) | 5.54 | 4.6 | 690 nM | 3820 nM | 830 nM
O=C(CN1CCCCC1)OC1CC2(N3CCCC3)CC(c3ccccc3)C1C(c1ccccc1)C2 (racemic) | 38.43 | 38.43 |  |  | 
